Marks after values point to notes of the source that are not given here.
Tests used:
[1] = EPR signal of nitroxides exposed to O2 flux formed by HX/XO (spin-loss); format: biochemical
Description: For EPR experiments, samples (0.05-0.1 ml) either of solutions of chemicals or cell suspensions were drawn by a syringe into a gas-permeable teflon capillary of 0.8 mm inner diameter, 0.05 mm wall thickness (Zeus Industrial Products, Inc. Raritan, N.J.). Each capillary was folded twice, inserted into a narrow quartz tube which was open at both ends (2.5 mm ID), and then placed horizontally into the EPR cavity. During the experiments, gases of desired compositions were blown around the sample without having to disturb the alignment of the tube within the EPR cavity. EPR spectra were recorded in a Varian E4 (or E9) X-band spectrometer, with field set at 3357 G, modulation frequency of 100 KHz, modulation amplitude of 1 G and non-saturating microwave power. The EPR spectrometer was interfaced to an IBM-PC through an analog-to-digital converter and a data translation hardware (DT2801) and the spectra were digitized using commercial acquisition software, enabling subtraction of background signals. To study the kinetics of the spin-loss, the spectra were deliberately overmodulated, and the magnetic field was kept constant while the intensity of the EPR signal was followed.

[2] = SOD-inhibitable ferricytochrome c reduction assay, rate constants of reaction with O2 (SOD-like activity); format: biochemical; conditions: low ionic strength (10 mM HEPES), pH 7.0, 22° C.
Source text: As a further check, the reaction of representatives of both 5- and 6-membered cyclic nitroxides with O2 was studied. The SOD-inhibitable ferricytochrome c reduction assay (Fridovich, Handbook of Methods for Oxygen Radical Research, 213-215, 1985) was used to determine rate constants of reaction with O2. […] The reaction was started by adding 0.01 U/ml XO and the rate of ferricytochrome c reduction, in the absence (V) and in the presence (v) of various nitroxides, was spectrophotometrically followed at 550 nm. Both reference and sample cuvettes contained all the reagents, with the reference cuvette containing 100 units/ml SOD, thereby eliminating spurious reactions from interfering with the determination of rate constants. Data were analyzed by plotting V/v as a function of [nitroxide] and k1 was calculated, knowing kCytC+superoxide, according to:
(V/v)−1=k1x[nitroxide]/kCytC+superoxidex[Cyt−c^III].

[3] = test system: Chinese hamster V79 cells; test: Protection of cells exposed to HX/XO, clonogenic survival; format: cell-based; conditions: for cell survival / protection from HX/XO: 0.05 U/ml XO + 0.5 mM HX, 37° C., 5 mM nitroxide, 100 U/ml catalase, SOD, 500 μM DF preincubated 2 h
Description: Chinese hamster V79 cells were grown in F12 medium supplemented with 10% fetal calf serum, penicillin, and streptomycin. Survival was assessed in all studies by the clonogenic assay. The plating efficiency range between 80-90%. Stock cultures of exponentially growing cells were trypsinized, rinsed, and plated (5×10^5 cells/dish) into a number of 100 mm petri dishes and incubated 16 h at 37° C. prior to experimental protocols. Cells were exposed for 1 h at 37° C. to either 0.5 mM hypoxanthine (HX)+0.05 U/ml of xanthine oxidase (XO) for varying lengths of time, or to H2O2 at different concentrations. To assess possible modulation in cytotoxicity, catalase, 100 U/ml; SOD, 100 μg/ml; DF, 500 μM; and 5 mM of each of the nitroxides from Table 1 were added to parallel cultures. CHD was prepared in a stock solution in ethanol and diluted into medium such that the final concentration was 5 mM. […] TEMPOL is water soluble and was prepared directly in tissue culture medium. […] DF was added either 2 h prior to or during treatment while the other agents were present only during HX/XO or H2O2 treatment. Following treatment, cells were rinsed, trypsinized, counted, and plated for macroscopic colony formation. For each dose determination cells were plated in triplicate and the experiments were repeated a minimum of two times. Plates were incubated 7 days, after which colonies were fixed with methanol/acetic acid, stained with crystal violet, and counted. Colonies containing >50 cells were scored. Error bars represent S.D. of the mean and are shown when larger than the symbol.

[4] = comparison value for native SOD; cited from earlier work
[5] = test system: Chinese hamster V79 cells; test: Protection of cells exposed to H2O2 under hypoxic conditions; format: cell-based; conditions: 600 μM H2O2, 1 h, 37° C.
Description: Some studies required exposure to H2O2 under hypoxic conditions. For these studies, cells dispersed in 1.8 ml of medium were plated into specially designed glass flasks (Russo et al, Radiat. Res., 103, 232-239, 1985). The flasks were sealed with soft rubber stoppers, and 19-gauge needles were pushed through to act as entrance and exit ports for a humidified gas mixture of 95% nitrogen/5% CO2 (Matheson Gas Products). […] Stoppered flasks were connected in series and mounted on a reciprocating platform and gassed at 37° C. for 45 min. […] After 45 min of gassing, the hypoxic H2O2 solution was added to the cell monolayer culture. The cells were exposed to H2O2 for 1 h under hypoxic conditions. N2 gas flow was maintained during the H2O2 exposure. In parallel flasks, DF and CHD were added as described above, and were present during the entire gassing procedure. Following treatment, cell survival was assessed as described above.

Molecule | Steady state EPR signal (%) ([1]; % from total R′RNO + R′RNOH after exposure to 5 mM HX + 0.03 U/ml XO in air-saturated PBS pH 7.2) | effect of O2 on the EPR signal ([1]; exposure to O2 flux formed by HX/XO) | kR′RNO + O2 [2] | cell survival / protection from HX/XO [3] | kcat of native SOD [4] [M⁻¹ s⁻¹] | protection from HX/XO, DF added simultaneously ([3]; DF addition simultaneously with HX/XO (data not shown)) | protection against H2O2 cytotoxicity under hypoxic conditions [5]
CC1(C)CCCC(C)(C)N1[O] [TEMPO, 2,2,6,6-tetramethylpiperidine-1-oxyl] | 100 | no effect | 1.3 × 10^6 M − 1^s − 1 |  |  |  | 
SOD: superoxide dismutase (SOD), obtained from Sigma |  |  |  | not altered | 2.3e+09 |  | 
CC(=O)N(O)CCCCCNC(=O)CCC(=O)N(O)CCCCCNC(=O)CCC(=O)N(O)CCCCCN [DF, Desferrioxamine, reference compound] |  |  |  | complete protection |  | only partial protection | complete protection
